Patent US9765092B2, “Tricyclic piperidine compounds” (ACTELION PHARMACEUTICALS LTD, priority 2013, dated 2017)
Read-outs that look alike come from different tables or passages of the source.

Target: human TPH1 (Homo sapiens (Human), UniProt P17752)
Assay: Biochemical in vitro assay using fluorescence readout (TPH1 inhibition)
[1] = human TPH1, fluorescence readout
[2] = full length human TPH1, 40 μM L-tryptophan, 15° C., 60 minutes, fluorescence at 540 nm, mean if determined several times

human TPH1, sequence (P17752 whole entry): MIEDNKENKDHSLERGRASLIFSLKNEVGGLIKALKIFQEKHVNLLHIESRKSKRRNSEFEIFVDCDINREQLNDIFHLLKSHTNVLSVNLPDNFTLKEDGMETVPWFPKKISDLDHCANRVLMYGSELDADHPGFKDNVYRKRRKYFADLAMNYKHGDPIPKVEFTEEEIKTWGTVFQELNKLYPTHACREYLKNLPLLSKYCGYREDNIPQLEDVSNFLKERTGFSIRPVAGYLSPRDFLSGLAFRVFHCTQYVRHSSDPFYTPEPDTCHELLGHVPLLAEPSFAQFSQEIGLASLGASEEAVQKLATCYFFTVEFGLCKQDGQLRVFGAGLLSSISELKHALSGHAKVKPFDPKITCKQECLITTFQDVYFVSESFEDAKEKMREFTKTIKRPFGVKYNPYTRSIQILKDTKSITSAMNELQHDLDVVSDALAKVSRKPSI

Row | SMILES | IC50 [1] | other results
1 | CS(=O)(=O)Nc1ccc(OCC(=O)N2CCc3nc4sc(CF)nn4c3C2c2ccc(Cl)cc2F)c(Cl)n1 (centres unmarked) [Example 7.1.1, N-(6-chloro-5-(2-(5-(4-chloro-2-fluorophenyl)-2-(fluoromethyl)-7,8-dihydro-[1,3,4]thiadiazolo[2′,3′:2,3-]imidazo[4,5-c]pyridin-6(5H)-yl)-2-oxoethoxy)pyridin-2-yl)methanesulfonamide] | 0.008 µM | –
2 | Cc1ccccc1OCC(=O)N1CCc2nc3sccn3c2C1c1cccnc1F (centres unmarked) [Example 6.2.4, 1-(5-(2-fluoropyridin-3-yl)-7,8-dihydrothiazolo[2′,3′:2,3]-imidazo[4,5-c]pyridin-6(5H)-yl)-2-(o-tolyloxy)ethanone] | 0.266 µM | –
3 | Cc1nn2c3c(nc2s1)CCN(C(=O)COc1ccc(C#N)nc1Cl)C3c1ccc(Cl)nc1F (centres unmarked) [Example 1.16.5, 6-chloro-5-(2-(5-(6-chloro-2-fluoropyridin-3-yl)-2-methyl-7,8-dihydro-[1,3,4]thiadiazolo[2′,3′:2,3]imidazo[4,5-c]pyridin-6(5H)-yl)-2-oxoethoxy)picolinonitrile] | 0.035 µM | –
4 | CCc1nc(NS(C)(=O)=O)ccc1OCC(=O)N1CCc2nc3sc(C)nn3c2[C@@H]1c1ncc(C)cc1F [Example 1.31.16, (R)-N-(6-ethyl-5-(2-(5-(3-fluoro-5-methylpyridin-2-yl)-2-methyl-7,8-dihydro-[1,3,4]thiadiazolo[2′,3′:2,3]imidazo[4,5-c]pyridin-6(5H)-yl)-2-oxoethoxy)pyridin-2-yl)methanesulfonamide] | 0.018 µM | –
5 | CCc1nc(NS(C)(=O)=O)ccc1OCC(=O)N1CCc2nc3sc(CF)nn3c2C1c1ccc(C)cc1F (centres unmarked) [Example 7.3.2, N-(6-ethyl-5-(2-(5-(2-fluoro-4-methylphenyl)-2-(fluoromethyl)-7,8-dihydro-[1,3,4]thiadiazolo[2′,3′:2,3]imidazo[4,5-c]pyridin-6(5H)-yl)-2-oxoethoxy)pyridin-2-yl)methanesulfonamide] | 0.012 µM | –
6 | Cc1ccccc1OCC(=O)N1CCc2nc3sccn3c2C1c1cnn(-c2ccccc2)c1 (centres unmarked) [Example 6.13.4, 1-(5-(1-phenyl-1H-pyrazol-4-yl)-7,8-dihydrothiazolo-[2′,3′:2,3]imidazo[4,5-c]pyridin-6(5H)-yl)-2-(o-tolyl-oxy)ethanone] | 0.236 µM | –
7 | CCOC(=O)c1ncc(C2c3c(nc4sc(C)nn34)CCN2C(=O)COc2ccc(C#N)cc2Cl)s1 (centres unmarked) [Example 1.30.3, Ethyl 5-(6-(2-(2-chloro-4-cyanophenoxy)acetyl)-2-methyl-5,6,7,8-tetrahydro-[1,3,4]thiadiazolo[2′,3′:2,3]imidazo[4,5-c]pyridin-5-yl)thiazole-2-carboxylate] | 0.371 µM | –
8 | Cc1cnc([C@H]2c3c(nc4sc(C)nn34)CCN2C(=O)COc2ccc(N(C)S(C)(=O)=O)nc2Cl)c(F)c1 [Example 1.31.15, (R)-N-(6-chloro-5-(2-(5-(3-fluoro-5-methylpyridin-2-yl)-2-methyl-7,8-dihydro-[1,3,4]thiadiazolo[2′,3′:2,3]-imidazo[4,5-c]pyridin-6(5H)-yl)-2-oxoethoxy)pyridin-2-yl)-N-methylmethanesulfonamide] | 0.009 µM | –
9 | CCc1ncccc1OCC(=O)N1CCc2nc3sccn3c2C1c1ccc(Cl)cc1F (centres unmarked) [Example 6.4.7, 1-(5-(4-chloro-2-fluorophenyl)-7,8-dihydrothiazolo-[2′,3′:2,3]imidazo[4,5-c]pyridin-6(5H)-yl)-2-((2-ethylpyridin-3-yl)oxy)ethanone] | 0.006 µM | –
10 | O=C(COc1cccnc1Cl)N1CCc2nc3sccn3c2C1c1cc2cccnc2s1 (centres unmarked) [Example 6.14.3, 2-((2-chloropyridin-3-yl)oxy)-1-(5-(thieno[2,3-b]pyridin-2-yl)-7,8-dihydrothiazolo[2′,3′:2,3]imidazo[4,5-c]pyridin-6(5H)-yl)ethanone] | 0.067 µM | –
11 | O=C(COc1ccc(CN2CCOCC2)nc1Cl)N1CCc2nc3sccn3c2C1c1cnn(-c2ccccc2)c1 (centres unmarked) [Example 6.13.6, 2-((2-chloro-6-(morpholinomethyl)pyridin-3-yl)oxy)-1-(5-(1-phenyl-1H-pyrazol-4-yl)-7,8-dihydrothiazolo-[2′,3′:2,3]imidazo[4,5-c]pyridin-6(5H)-yl)ethanone] | 0.028 µM | –
12 | CNC(=O)c1cc(F)c(C2c3c(nc4sc(C)nn34)CCN2C(=O)COc2ccc(C(N)=O)nc2Cl)s1 (centres unmarked) [Example 1.25.6, 6-chloro-5-(2-(5-(3-fluoro-5-(methylcarbamoyl)thiophen-2-yl)-2-methyl-7,8-dihydro-[1,3,4]thiadiazolo[2′,3′:2,3]imidazo[4,5-c]pyridin-6(5H)-yl)-2-oxoethoxy)picolinamide] | 0.008 µM | –
13 | CCc1nc(C)ccc1OCC(=O)N1CCc2nc3sc(C)nn3c2C1c1cnc(OC(F)F)cc1C (centres unmarked) [Example 1.15.3, 1-(5-(6-(difluoromethoxy)-4-methylpyridin-3-yl)-2-methyl-7,8-dihydro-[1,3,4]thiadiazolo[2′,3′:2,3]imidazo[4,5c]pyridin-6(5H)-yl)-2-((2-ethyl-6-methylpyridin-3-yl)oxy)ethanone] | 0.156 µM | –
14 | Cc1nn2c3c(nc2s1)CCN(C(=O)C1(Oc2ccc(C(=O)N(C)C)nc2Cl)CC1)C3c1ccc(Cl)cc1F (centres unmarked) [Example 1.4.57, 6-chloro-5-(1-(5-(4-chloro-2-fluorophenyl)-2-methyl-5,6,7,8-tetrahydro-[1,3,4]thiadiazolo[2′,3′:2,3]imidazo[4,5-c]pyridine-6-carbonyl)cyclopropoxy)-N,N-dimethylpicolinamide] | 0.039 µM | –
15 | Cc1nn2c3c(nc2s1)CCN(C(=O)COc1ccc(N2CCOCC2)nc1Cl)C3c1ncc(C2CC2)cc1F (centres unmarked) [Example 1.14.1, 2-((2-chloro-6-morpholinopyridin-3-yl)oxy)-1-(5-(5-cyclopropyl-3-fluoropyridin-2-yl)-2-methyl-7,8-dihydro-[1,3,4]thiadiazolo[2′,3′:2,3]imidazo[4,5-c]pyridin-6(5H)-yl)ethanone] | 0.004 µM | –
16 | Cc1nn2c3c(nc2s1)CCN(C(=O)COc1ccc(I)nc1Cl)C3c1ccc(Cl)cc1F (centres unmarked) [Example 1.4.10, 1-(5-(4-chloro-2-fluorophenyl)-2-methyl-7,8-dihydro-[1,3,4]thiadiazolo[2′,3′:2,3]imidazo[4,5-c]pyridin-6(5H)-yl)-2-((2-chloro-6-iodopyridin-3-yl)oxy)ethanone] | 0.008 µM | –
17 | Cc1nn2c3c(nc2s1)CCN(C(=O)COc1ccc(N2CCOCC2)nc1Cl)C3c1csc(C(=O)O)c1 (centres unmarked) [Example 1.38.1, 4-(6-(2-((2-Chloro-6-morpholinopyridin-3-yl)oxy)acetyl)-2-methyl-5,6,7,8-tetrahydro-[1,3,4]thiadiazolo[2′,3′:2,3]imidazo[4,5-c]pyridin-5-yl)thiophene-2-carboxylic acid] | – | IC50 [2]: 0.113 µM
18 | Cc1nn2c3c(nc2s1)CCN(C(=O)COc1ccc(NS(C)(=O)=O)nc1Cl)C3c1ncccc1F (centres unmarked) [Example 1.35.4, N-(6-chloro-5-(2-(5-(3-fluoropyridin-2-yl)-2-methyl-7,8-dihydro-[1,3,4]thiadiazolo[2′,3′:2,3]imidazo[4,5-c]pyridine-6(5H)-yl)-2-oxoethoxy)pyridin-2-l)methanesulfonamide] | – | IC50: 0.035 µM
19 | Cc1nn2c3c(nc2s1)CCN(C(=O)COc1ccc(N(C)C)nc1Cl)C3c1cnc(N(C)C)s1 (centres unmarked) [Example 1.22.2, 2-((2-Chloro-6-(dimethylamino)pyridin-3-yl)oxy)-1-(5-(2-(dimethylamino)thiazol-5-yl)-2-methyl-7,8-dihydro[1,3,4]thiadiazolo[2′,3′:2,3]imidazo[4,5-c]pyridin-6(5H)-yl)ethanone] | – | IC50 [2]: 0.025 µM
20 | CNC(=O)c1cc(F)c(C2c3c(nc4sc(C)nn34)CCN2C(=O)COc2cc(F)cnc2Cl)s1 (centres unmarked) [Example 1.25.9, 5-(6-(2-((2-chloro-5-fluoropyridin-3-yl)oxy)acetyl)-2-methyl-5,6,7,8-tetrahydro-[1,3,4]thiadiazolo[2′,3′:2,3]imidazo[4,5-c]pyridin-5-yl)-4-fluoro-N-methylthiophene-2-carboxamide] | 0.047 µM | –
21 | CCN(CC)C(=O)c1ccc(OCC(=O)N2CCc3nc4sc(C)nn4c3[C@@H]2c2sccc2F)c(Cl)n1 [Example 1.23.14, (R)-6-chloro-N,N-diethyl-5-(2-(5-(3-fluorothiophen-2-yl)-2-methyl-7,8-dihydro-[1,3,4]thiadiazolo[2′,3′:2,3]imidazo[4,5-c]pyridin-6(5H)-yl)-2-oxoethoxy)picolinamide] | 0.019 µM | –
22 | Cc1nn2c3c(nc2s1)CCN(C(=O)COc1ccc(N2CC(F)(F)C2)nc1Cl)C3c1ncc(Cl)cc1F (centres unmarked) [Example 1.33.2, 1-(5-(5-chloro-3-fluoropyridin-2-yl)-2-methyl-7,8-dihydro-[1,3,4]thiadiazolo[2′,3′:2,3]imidazo[4,5-c]pyridin-6(5H)-yl)-2-((2-chloro-6-(3,3-difluoroazetidin-1-yl)pyridin-3-yl)oxy)ethanone] | 0.004 µM | –
23 | Cc1nn2c3c(nc2s1)CCN(C(=O)COc1ccc(N(C)C)nc1Cl)C3c1cnc(OC(F)F)cc1C (centres unmarked) [Example 1.15.1, 2-((2-chloro-6-(dimethylamino)pyridin-3-yl)oxy)-1-(5-(6-(difluoromethoxy)-4-methylpyridin-3-yl)-2-methyl-7,8-dihydro-[1,3,4]thiadiazolo[2′,3′:2,3]imidazo[4,5-c]pyridin-6(5H)-yl)ethanone] | 0.058 µM | –
24 | Cc1cnc(C2c3c(nc4sc(C)nn34)CCN2C(=O)COc2ccc(NS(=O)(=O)C3CC3)nc2Cl)c(F)c1 (centres unmarked) [Example 1.31.9, N-(6-chloro-5-(2-(5-(3-fluoro-5-methylpyridin-2-yl)-2-methyl-7,8-dihydro-[1,3,4]thiadiazolo[2′,3′:2,3]imidazo[4,5-c]pyridin-6(5H)-yl)-2-oxoethoxy)pyridin-2-yl)cyclopropanesulfonamide] | 0.021 µM | –
25 | Cc1nn2c3c(nc2s1)CCN(C(=O)COc1ccc(N2CCOCC2)nc1Cl)C3c1coc(-c2ccccc2)n1 (centres unmarked) [Example 1.12.1, 2-((2-chloro-6-morpholinopyridin-3-yl)oxy)-1-(2-methyl-5-(2-phenyloxazol-4-yl)-7,8-dihydro-[1,3,4]thiadiazolo [2′,3′:2,3]imidazo[4,5-c]pyridin-6(5H)-yl)ethanone] | 0.014 µM | –
26 | N#Cc1ccc(OCC(=O)N2CCc3nc4scnn4c3C2c2ccc(Cl)cc2F)c(Cl)c1 (centres unmarked) [Example 2.1.2, 3-chloro-4-(2-(5-(4-chloro-2-fluorophenyl)-7,8-dihydro-[1,3,4]thiadiazolo[2′,3′:2,3]imidazo[4,5-c]pyridin-6(5H)-yl)-2-oxoethoxy)benzonitrile] | 0.031 µM | –
